pKd: −log10 of the molar value.
Target: T1, Lyp-CCPGCC (lymphoid-specific protein tyrosine phosphatase, PTPN22, engineered insertion mutant) (Homo sapiens, UniProt Q9Y2R2, INS199CCPGCC)
T1 sequence (Q9Y2R2 with tags, fused parts or gaps INS199CCPGCC): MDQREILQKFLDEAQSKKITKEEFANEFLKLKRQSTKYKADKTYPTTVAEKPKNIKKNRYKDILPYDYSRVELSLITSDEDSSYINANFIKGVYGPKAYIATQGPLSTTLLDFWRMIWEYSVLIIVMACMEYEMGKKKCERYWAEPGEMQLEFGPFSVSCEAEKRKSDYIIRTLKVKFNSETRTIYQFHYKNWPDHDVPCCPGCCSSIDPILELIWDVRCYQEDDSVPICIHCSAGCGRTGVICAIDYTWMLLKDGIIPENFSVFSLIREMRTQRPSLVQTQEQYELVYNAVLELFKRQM
Experiment: FlAsH fluorescence titration with purified Lyp-CCPGCC
Format: binding

## O=C1OC2(c3ccccc31)c1ccc(O)c([As]3SCCS3)c1Oc1c2ccc(O)c1[As]1SCCS1 [FlAsH]
  pKd: 7.17
